The values below come from patent publication US11345711B2, “8,9-dihydroimidazo[1,2-a]pyrimido[5,4-e]pyrimidin-5(6H)-ones” (IMPACT THERAPEUTICS (SHANGHAI), INC, priority 2016, dated 2022).

Read-outs that look alike come from different tables or passages of the source.

In one assay the test system is LoVo cells. Briefly: MTT based cell viability assay on LoVo cells. Conditions: Homo sapiens, LoVo, 72 h, 3 d, read-out: IC50, growth inhibition of LoVo cells. In short, it runs like this: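 Inhibition of LoVo proliferation was derived as IC50 from a sigmoidal dose-response fit of cell survival. Readout was MTT (0.5 mg/mL, 4 h) with absorbance at 552/630/690 nm, after 3-day treatment at 37 °C. Eight-point series from 10 μM to 0.01 μM, DMSO control, 1% DMSO final.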

The subject of another assay is NCI-H1299 cells. Briefly: MTT based cell viability assay on NCI-H1299 cells. To be noted: Homo sapiens, read-out: IC50, growth inhibition of NCI-H1299 cells. The essentials:
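NCI-H1299 cells (1000/well, settled overnight) were exposed for 3 d at 37 °C, 5% CO2, to an eight-point series of 10 μM to 0.01 μM plus DMSO blank, as prepared in DMSO (final DMSO 1‰). MTT (0.5 mg/mL, 4 h) was read at 552/630/690 nm. IC50 came from sigmoidal dose-response fits of survival.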

A further assay concerns the target Wee1 (h) (Homo sapiens, UniProt P30291). Briefly: Wee1 kinase (h) detection method, [γ-33P]-ATP filter assay. The class given is biochemical.

Wee1 (h), sequence (P30291 whole entry): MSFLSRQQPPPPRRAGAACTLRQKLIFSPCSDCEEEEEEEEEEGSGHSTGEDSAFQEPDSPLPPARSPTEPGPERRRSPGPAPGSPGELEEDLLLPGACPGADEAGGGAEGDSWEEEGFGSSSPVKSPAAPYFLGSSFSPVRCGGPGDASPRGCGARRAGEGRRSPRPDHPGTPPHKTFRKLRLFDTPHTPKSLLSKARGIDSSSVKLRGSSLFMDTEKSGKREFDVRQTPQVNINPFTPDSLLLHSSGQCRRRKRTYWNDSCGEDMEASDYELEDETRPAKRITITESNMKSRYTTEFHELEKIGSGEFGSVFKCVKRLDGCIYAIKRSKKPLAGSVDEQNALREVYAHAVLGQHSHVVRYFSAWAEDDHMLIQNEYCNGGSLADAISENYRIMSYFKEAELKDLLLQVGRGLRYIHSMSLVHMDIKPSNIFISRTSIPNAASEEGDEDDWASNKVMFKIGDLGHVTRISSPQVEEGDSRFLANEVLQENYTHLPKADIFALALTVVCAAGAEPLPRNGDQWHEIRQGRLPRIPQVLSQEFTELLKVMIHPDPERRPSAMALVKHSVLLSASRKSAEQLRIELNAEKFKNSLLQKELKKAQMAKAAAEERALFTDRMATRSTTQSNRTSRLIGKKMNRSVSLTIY

Turning to `CN1CCN(c2ccc(Nc3ncc4c(n3)N3CCN=C3N(c3c(F)cccc3Cl)C4=O)c(C(F)(F)F)c2)CC1` [Example 40, 6-(2-Chloro-6-fluorophenyl)-2-((4-(4-methylpiperazin-1-yl)-2-(trifluoromethyl)phenyl)amino)-8,9-dihydroimidazo[1,2-a]pyrimido[5,4-e]pyrimidin-5(6H)-one], the IC50 is above 100000 nM in the assay with LoVo cells and above 10000 nM in the assay on NCI-H1299 cells (NCI-H1299 cells). On Wee1 (h) (C 1 μm compound), the “Inh. (%) of Wee1 kinase enzyme activity” value worked out at 4%.
Turning to `C[C@@H]1CN(c2ccc(Nc3ncc4c(n3)N3CCN=C3N(c3c(F)cccc3Cl)C4=O)c(C(F)(F)F)c2)C[C@H](C)N1C` [Example 41, 6-(2-Chloro-6-fluorophenyl)-2-((2-trifluoromethyl-4-((3S,5R)-3,4,5-trimethylpiperazin-1-yl)phenyl)amino)-8,9-dihydroimidazo[1,2-a]pyrimido[5,4-e]pyrimidin-5(6H)-one], the IC50 with LoVo cells was above 100000 nM; in the assay with NCI-H1299 cells (NCI-H1299 cells), above 10000 nM. In addition, the “Inh. (%) of Wee1 kinase enzyme activity” value at Wee1 (h) (C 1 μm compound) is recorded as 2%.
On the same counts, the results for `Cc1cc(N2CCN(C)CC2)ccc1Nc1ncc2c(n1)N1CCN=C1N(c1c(F)cccc1Cl)C2=O` [Example 42, 6-(2-Chloro-6-fluorophenyl)-2-((2-methyl-4-(4-methylpiperazin-1-yl)phenyl)amino)-8,9-dihydroimidazo[1,2-a]pyrimido[5,4-e]pyrimidin-5(6H)-one] are above 100000 nM, above 10000 nM and 19%.
Turning to `Cc1cc(N2C[C@@H](C)N(C)[C@@H](C)C2)ccc1Nc1ncc2c(n1)N1CCN=C1N(c1c(F)cccc1Cl)C2=O` [Example 43, 6-(2-Chloro-6-fluorophenyl)-2-((2-methyl-4-((3S,5R)-3,4,5-trimethylpiperazin-1-yl)phenyl)amino)-8,9-dihydroimidazo[1,2-a]pyrimido[5,4-e]pyrimidin-5(6H)-one], the concentration for half-maximal inhibition (IC50) with LoVo cells is above 100000 nM; in the assay with NCI-H1299 cells (NCI-H1299 cells), above 10000 nM. On Wee1 (h) (C 1 μm compound), the “Inh. (%) of Wee1 kinase enzyme activity” value stood at 27%.
`CN1CCN(c2ccc(Nc3ncc4c(n3)N3CCN=C3N(c3c(F)cccc3Cl)C4=O)cc2F)CC1` [Example 44, 6-(2-Chloro-6-fluorophenyl)-2-((3-fluoro-4-(4-methylpiperazin-1-yl)phenyl)amino)-8,9-dihydroimidazo[1,2-a]pyrimido[5,4-e]pyrimidin-5(6H)-one]: the concentration for half-maximal inhibition (IC50) was 37.1 nM in the assay with LoVo cells and 597 nM with NCI-H1299 cells (NCI-H1299, NCI-H1299 cells). The entries for the “Inh. (%) of Wee1 kinase enzyme activity” value at Wee1 (h) (C 0.01 μm compound), on Wee1 (h) (C 0.1 μm compound) and on Wee1 (h) (C 1 μm compound) were 23%, 75% and 93%, respectively.
On the same counts, the results for `C[C@@H]1CN(c2ccc(Nc3ncc4c(n3)N3CCN=C3N(c3c(F)cccc3Cl)C4=O)cc2F)C[C@H](C)N1C` [Example 45, 6-(2-Chloro-6-fluorophenyl)-2-((3-fluoro-4-((3S,5R)-3,4,5-trimethylpiperazin-1-yl)phenyl)amino)-8,9-dihydroimidazo[1,2-a]pyrimido[5,4-e]pyrimidin-5(6H)-one] are 1180 nM, 616 nM, 28%, 80% and 95%.
As to `CN1CCN(c2ccc(Nc3ncc4c(n3)N3CCN=C3N(c3c(F)cccc3Cl)C4=O)cc2Cl)CC1` [Example 46, 6-(2-Chloro-6-fluorophenyl)-2-((3-chloro-4-(4-methylpiperazin-1-yl)phenyl)amino)-8,9-dihydroimidazo[1,2-a]pyrimido[5,4-e]pyrimidin-5(6H)-one], the IC50 was 26.1 nM in the assay on LoVo cells and 528 nM in the assay with NCI-H1299 cells (NCI-H1299, NCI-H1299 cells). Besides, the “Inh. (%) of Wee1 kinase enzyme activity” value turned out to be 36% at Wee1 (h) (C 0.01 μm compound), 85% on Wee1 (h) (C 0.1 μm compound) and 97% on Wee1 (h) (C 1 μm compound).
On to `C[C@@H]1CN(c2ccc(Nc3ncc4c(n3)N3CCN=C3N(c3c(F)cccc3Cl)C4=O)cc2Cl)C[C@H](C)N1C` [Example 47, 2-((3-Chloro-4-((3S,5R)-3,4,5-trimethylpiperazin-1-yl)phenyl)amino)-6-(2-chloro-6-fluorophenyl)-8,9-dihydroimidazo[1,2-a]pyrimido[5,4-e]pyrimidin-5(6H)-one], for which the results for the IC50 in the assay with LoVo cells and in the assay with NCI-H1299 cells (NCI-H1299 cells) were 30.5 nM and 330 nM, respectively. For the same compound, the “Inh. (%) of Wee1 kinase enzyme activity” value on Wee1 (h) (C 0.01 μm compound) was 45%; at Wee1 (h) (C 0.1 μm compound) it was 89%; at Wee1 (h) (C 1 μm compound), 98%.
Consider `CN1CCN(c2ccc(Nc3ncc4c(n3)N3CCN=C3N(c3c(F)cccc3Cl)C4=O)cc2C(F)(F)F)CC1` [Example 48, 6-(2-Chloro-6-fluorophenyl)-2-((4-(4-methylpiperazin-1-yl)-3-(trifluoromethyl)phenyl)amino)-8,9-dihydroimidazo[1,2-a]pyrimido[5,4-e]pyrimidin-5(6H)-one], for which the IC50 with LoVo cells was found to be 117 nM; in the assay on NCI-H1299 cells (NCI-H1299, NCI-H1299 cells) it was 1120 nM. Further, the figures for the “Inh. (%) of Wee1 kinase enzyme activity” value on Wee1 (h) (C 0.01 μm compound), on Wee1 (h) (C 0.1 μm compound) and at Wee1 (h) (C 1 μm compound) were 29%, 75% and 91%, respectively.
As for `C[C@@H]1CN(c2ccc(Nc3ncc4c(n3)N3CCN=C3N(c3c(F)cccc3Cl)C4=O)cc2C(F)(F)F)C[C@H](C)N1C` [Example 49, 6-(2-Chloro-6-fluorophenyl)-2-((3-trifluoromethyl-4-((3S,5R)-3,4,5-trimethylpiperazin-1-yl)phenyl)amino)-8,9-dihydroimidazo[1,2-a]pyrimido[5,4-e]pyrimidin-5(6H)-one], the IC50 was found to be 96.9 nM in the assay on LoVo cells and 543 nM in the assay with NCI-H1299 cells (NCI-H1299 cells). Moreover, the “Inh. (%) of Wee1 kinase enzyme activity” value on Wee1 (h) (C 0.01 μm compound) is 43%; at Wee1 (h) (C 0.1 μm compound), 86%; at Wee1 (h) (C 1 μm compound), 95%.
Regarding `Cc1cc(Nc2ncc3c(n2)N2CCN=C2N(c2c(F)cccc2Cl)C3=O)ccc1N1CCN(C)CC1` [Example 50, 6-(2-Chloro-6-fluorophenyl)-2-((3-methyl-4-(4-methylpiperazin-1-yl)phenyl)amino)-8,9-dihydroimidazo[1,2-a]pyrimido[5,4-e]pyrimidin-5(6H)-one], the IC50 with LoVo cells was 58.9 nM; in the assay on NCI-H1299 cells (NCI-H1299, NCI-H1299 cells), 229 nM. Moreover, the “Inh. (%) of Wee1 kinase enzyme activity” value was 62% at Wee1 (h) (C 0.01 μm compound), 95% on Wee1 (h) (C 0.1 μm compound) and 100% at Wee1 (h) (C 1 μm compound).
On the same counts, the results for `Cc1cc(Nc2ncc3c(n2)N2CCN=C2N(c2c(F)cccc2Cl)C3=O)ccc1N1C[C@@H](C)N(C)[C@@H](C)C1` [Example 51, 6-(2-Chloro-6-fluorophenyl)-2-((3-methyl-4-((3S,5R)-3,4,5-trimethylpiperazin-1-yl)phenyl)amino)-8,9-dihydroimidazo[1,2-a]pyrimido[5,4-e]pyrimidin-5(6H)-one] are 105 nM, 165 nM, 66%, 86% and 96%.
With `Cc1cc(Nc2ncc3c(n2)N2CCN=C2N(c2c(F)cccc2Cl)C3=O)ccc1N1CCN(C(C)C)CC1` [Example 52, 6-(2-Chloro-6-fluorophenyl)-2-((4-(4-isopropylpiperazin-1-yl)-3-methylphenyl)amino)-8,9-dihydroimidazo[1,2-a]pyrimido[5,4-e]pyrimidin-5(6H)-one], the 50% inhibitory concentration (IC50) is 87.4 nM with LoVo cells and 127 nM in the assay with NCI-H1299 cells (NCI-H1299, NCI-H1299 cells). Moreover, the “Inh. (%) of Wee1 kinase enzyme activity” value on Wee1 (h) (C 0.01 μm compound) worked out at 111%; on Wee1 (h) (C 0.1 μm compound), 80%; on Wee1 (h) (C 1 μm compound) it was 93%.
Taken in the same sequence, the figures for `Cc1cc(Nc2ncc3c(n2)N2CCN=C2N(c2c(F)cccc2Cl)C3=O)ccc1N1C[C@@H](C)N(C(C)C)[C@@H](C)C1` [Example 53, 6-(2-Chloro-6-fluorophenyl)-2-((4-((3S,5R)-4-isopropyl-3,5-dimethylpiperazin-1-yl)-3-methylphenyl)amino)-8,9-dihydroimidazo[1,2-a]pyrimido[5,4-e]pyrimidin-5(6H)-one] were 85.5 nM, 145 nM, 13%, 82% and 91%.
`COc1cc(Nc2ncc3c(n2)N2CCN=C2N(c2c(F)cccc2Cl)C3=O)ccc1N1CCN(C)CC1` [Example 54, 6-(2-Chloro-6-fluorophenyl)-2-((3-methoxy-4-(4-methylpiperazin-1-yl)phenyl)amino)-8,9-dihydroimidazo[1,2-a]pyrimido[5,4-e]pyrimidin-5(6H)-one]: the IC50 stood at 155 nM in the assay on LoVo cells and 1530 nM in the assay on NCI-H1299 cells (NCI-H1299 cells). Further, the “Inh. (%) of Wee1 kinase enzyme activity” value on Wee1 (h) (C 1 μm compound) came to 81%.
Taken in the same sequence, the figures for `CN1CCN(c2ccc(Nc3ncc4c(n3)N3CCN=C3N(c3c(F)cccc3Cl)C4=O)cc2[N+](=O)[O-])CC1` [Example 55, 6-(2-Chloro-6-fluorophenyl)-2-((4-(4-methylpiperazin-1-yl)-3-nitrophenyl)amino)-8,9-dihydroimidazo[1,2-a]pyrimido[5,4-e]pyrimidin-5(6H)-one] were above 100000 nM, above 10000 nM and 12%.
